How the values were obtained:
Format in all cases: in vivo
[1] = system: sedge, umbrella (small-flower umbrella sedge, Cyperus difformis); test: Test B flooded paddy test, umbrella sedge; conditions: 250 g ai/ha, Flood; visual rating after 13 to 15 days; scale 0 to 100, 0 is no effect, 100 is complete control
How it was run: (§1)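 Visual ratings, 0 = no effect to 100 = complete control, versus controls after 13 to 15 days in greenhouse. Test compounds were added to paddy water kept 3 cm over the soil surface, on plants at 2-leaf stage.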

[2] = system: ryegrass, Italian (Italian ryegrass, Lolium multiflorum); test: Test A postemergence, Italian ryegrass
How it was run: (§2)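 Ratings run 0–100, where 100 is complete control, and were scored visually against untreated plants about 10 days after treatment under greenhouse conditions. Formulated chemicals were sprayed either onto the soil surface after seeding (preemergence) or onto one- to two-leaf seedlings 2–10 cm high (postemergence).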

rice (Oryza sativa) = test: Test B flooded paddy test, rice; conditions: 250 g ai/ha, Flood; visual rating after 13 to 15 days; scale 0 to 100, 0 is no effect, 100 is complete control
How it was run: as §1

kochia (Kochia scoparia) [3] = test: Test A postemergence, kochia
How it was run: as §2

[4] = system: ragweed (common ragweed, Ambrosia elatior); test: Test A postemergence, ragweed
How it was run: as §2

[5] = system: ryegrass, Italian (Italian ryegrass, Lolium multiflorum); test: Test A preemergence, Italian ryegrass; conditions: Preemergence, 0 to 100 scale (0 no effect, 100 complete control)
How it was run: as §2

corn (Zea mays) = test: Test A postemergence, corn
How it was run: as §2

[6] = system: blackgrass (Alopecurus myosuroides); test: Test A postemergence, blackgrass
How it was run: as §2

[7] = system: pigweed (Amaranthus retroflexus); test: Test A preemergence, pigweed; conditions: Preemergence, 0 to 100 scale (0 no effect, 100 complete control)
How it was run: as §2

[8] = system: foxtail, giant (giant foxtail, Setaria faberii); test: Test A preemergence, giant foxtail; conditions: Preemergence, 0 to 100 scale (0 no effect, 100 complete control)
How it was run: as §2

[9] = system: ducksalad (Heteranthera limosa); test: Test B flooded paddy test, ducksalad; conditions: 250 g ai/ha, Flood; visual rating after 13 to 15 days; scale 0 to 100, 0 is no effect, 100 is complete control
How it was run: as §1

kochia (Kochia scoparia) [10] = test: Test A preemergence, kochia; conditions: Preemergence, 0 to 100 scale (0 no effect, 100 complete control)
How it was run: as §2

[11] = system: foxtail, giant (giant foxtail, Setaria faberii); test: Test A postemergence, giant foxtail
How it was run: as §2

[12] = system: barnyardgrass (Echinochloa crus-galli); test: Test A postemergence, barnyardgrass
How it was run: as §2

[13] = system: barnyardgrass (Echinochloa crus-galli); test: Test A preemergence, barnyardgrass; conditions: Preemergence, 0 to 100 scale (0 no effect, 100 complete control)
How it was run: as §2

[14] = system: ragweed (common ragweed, Ambrosia elatior); test: Test A preemergence, ragweed; conditions: Preemergence, 0 to 100 scale (0 no effect, 100 complete control)
How it was run: as §2

[15] = system: galium (catchweed bedstraw, Galium aparine); test: Test A postemergence, galium
How it was run: as §2

[16] = system: wheat (Triticum aestivum); test: Test A postemergence, wheat
How it was run: as §2

[17] = system: barnyardgrass (Echinochloa crus-galli); test: Test B flooded paddy test, barnyardgrass; conditions: 250 g ai/ha, Flood; visual rating after 13 to 15 days; scale 0 to 100, 0 is no effect, 100 is complete control
How it was run: as §1

[18] = system: pigweed (Amaranthus retroflexus); test: Test A postemergence, pigweed
How it was run: as §2

[19] = 125 g ai/ha, postemergence, 0 to 100 scale, 0 is no effect, 100 is complete control, approximately 10 days
[20] = Postemergence, 31 g ai/ha, 0 to 100 scale (0 no effect, 100 complete control)

N#CCCCOc1c(I)cccc1Oc1ncc(Cl)cn1 [Compound 67]
Plant response rating, Sedge, Umbrella [1]: 95 | Plant response rating, Ryegrass, Italian [2, 19]: 10 | Plant response rating, Ryegrass, Italian [2, 20]: 0 | Plant response rating, Rice (rice (Oryza sativa)): 10 | Plant response rating, Kochia (kochia (Kochia scoparia) [3]; [19]): 100 | Plant response rating, Kochia (kochia (Kochia scoparia) [3]; [20]): 60 | Plant response rating, Ragweed [4, 19]: 10 | Plant response rating, Ragweed [4, 20]: 0 | Plant response rating, Ryegrass, Italian ([5]; 31 g ai/ha): 0 | Plant response rating, Ryegrass, Italian ([5]; 125 g ai/ha): 20 | Plant response rating, Corn (corn (Zea mays); [19]): 20 | Plant response rating, Corn (corn (Zea mays); [20]): 10 | Plant response rating, Blackgrass [6, 19]: 30 | Plant response rating, Blackgrass [6, 20]: 0 | Plant response rating, Pigweed ([7]; 31 g ai/ha): 50 | Plant response rating, Pigweed ([7]; 125 g ai/ha): 100 | Plant response rating, Foxtail, Giant ([8]; 31 g ai/ha): 60 | Plant response rating, Foxtail, Giant ([8]; 125 g ai/ha): 100 | Plant response rating, Ducksalad [9]: 100 | Plant response rating, Kochia (kochia (Kochia scoparia) [10]; 31 g ai/ha): 20 | Plant response rating, Kochia (kochia (Kochia scoparia) [10]; 125 g ai/ha): 80 | Plant response rating, Foxtail, Giant [11, 19]: 30 | Plant response rating, Foxtail, Giant [11, 20]: 10 | Plant response rating, Barnyardgrass [12, 19]: 30 | Plant response rating, Barnyardgrass [12, 20]: 0 | Plant response rating, Barnyardgrass ([13]; 31 g ai/ha): 0 | Plant response rating, Barnyardgrass ([13]; 125 g ai/ha): 30 | Plant response rating, Ragweed ([14]; 31 g ai/ha): 0 | Plant response rating, Ragweed ([14]; 125 g ai/ha): 0 | Plant response rating, Galium [15, 19]: 50 | Plant response rating, Galium [15, 20]: 30 | Plant response rating, Wheat [16, 19]: 0 | Plant response rating, Wheat [16, 20]: 0 | Plant response rating, Barnyardgrass [17]: 0 | Plant response rating, Pigweed [18, 19]: 100 | Plant response rating, Pigweed [18, 20]: 60

Cl/C=C/COc1c(I)cccc1Oc1ncc(Cl)cn1 [Compound 68]
Plant response rating, Sedge, Umbrella [1]: 100 | Plant response rating, Ryegrass, Italian [2, 19]: 30 | Plant response rating, Ryegrass, Italian [2, 20]: 0 | Plant response rating, Rice (rice (Oryza sativa)): 10 | Plant response rating, Kochia (kochia (Kochia scoparia) [3]; [19]): 100 | Plant response rating, Kochia (kochia (Kochia scoparia) [3]; [20]): 90 | Plant response rating, Ragweed [4, 19]: 20 | Plant response rating, Ragweed [4, 20]: 0 | Plant response rating, Ryegrass, Italian ([5]; 31 g ai/ha): 0 | Plant response rating, Ryegrass, Italian ([5]; 125 g ai/ha): 20 | Plant response rating, Corn (corn (Zea mays); [19]): 30 | Plant response rating, Corn (corn (Zea mays); [20]): 20 | Plant response rating, Blackgrass [6, 19]: 60 | Plant response rating, Blackgrass [6, 20]: 20 | Plant response rating, Pigweed ([7]; 31 g ai/ha): 0 | Plant response rating, Pigweed ([7]; 125 g ai/ha): 100 | Plant response rating, Foxtail, Giant ([8]; 31 g ai/ha): 70 | Plant response rating, Foxtail, Giant ([8]; 125 g ai/ha): 100 | Plant response rating, Ducksalad [9]: 100 | Plant response rating, Kochia (kochia (Kochia scoparia) [10]; 31 g ai/ha): 0 | Plant response rating, Kochia (kochia (Kochia scoparia) [10]; 125 g ai/ha): 30 | Plant response rating, Foxtail, Giant [11, 19]: 80 | Plant response rating, Foxtail, Giant [11, 20]: 30 | Plant response rating, Barnyardgrass [12, 19]: 100 | Plant response rating, Barnyardgrass [12, 20]: 60 | Plant response rating, Barnyardgrass ([13]; 31 g ai/ha): 70 | Plant response rating, Barnyardgrass ([13]; 125 g ai/ha): 70 | Plant response rating, Ragweed ([14]; 31 g ai/ha): 0 | Plant response rating, Ragweed ([14]; 125 g ai/ha): 0 | Plant response rating, Galium [15, 19]: 60 | Plant response rating, Galium [15, 20]: 50 | Plant response rating, Wheat [16, 19]: 0 | Plant response rating, Wheat [16, 20]: 0 | Plant response rating, Barnyardgrass [17]: 40 | Plant response rating, Pigweed [18, 19]: 100 | Plant response rating, Pigweed [18, 20]: 80

FC(F)(F)CCOc1c(I)cccc1Oc1ncc(Cl)cn1 [Compound 69]
Plant response rating, Sedge, Umbrella [1]: 100 | Plant response rating, Ryegrass, Italian [2, 19]: 90 | Plant response rating, Ryegrass, Italian [2, 20]: 0 | Plant response rating, Rice (rice (Oryza sativa)): 15 | Plant response rating, Kochia (kochia (Kochia scoparia) [3]; [19]): 100 | Plant response rating, Kochia (kochia (Kochia scoparia) [3]; [20]): 90 | Plant response rating, Ragweed [4, 19]: 40 | Plant response rating, Ragweed [4, 20]: 30 | Plant response rating, Ryegrass, Italian ([5]; 31 g ai/ha): 10 | Plant response rating, Ryegrass, Italian ([5]; 125 g ai/ha): 50 | Plant response rating, Corn (corn (Zea mays); [19]): 70 | Plant response rating, Corn (corn (Zea mays); [20]): 20 | Plant response rating, Blackgrass [6, 19]: 80 | Plant response rating, Blackgrass [6, 20]: 30 | Plant response rating, Pigweed ([7]; 31 g ai/ha): 90 | Plant response rating, Pigweed ([7]; 125 g ai/ha): 100 | Plant response rating, Foxtail, Giant ([8]; 31 g ai/ha): 90 | Plant response rating, Foxtail, Giant ([8]; 125 g ai/ha): 100 | Plant response rating, Ducksalad [9]: 100 | Plant response rating, Kochia (kochia (Kochia scoparia) [10]; 31 g ai/ha): 80 | Plant response rating, Kochia (kochia (Kochia scoparia) [10]; 125 g ai/ha): 100 | Plant response rating, Foxtail, Giant [11, 19]: 100 | Plant response rating, Foxtail, Giant [11, 20]: 40 | Plant response rating, Barnyardgrass [12, 19]: 100 | Plant response rating, Barnyardgrass [12, 20]: 60 | Plant response rating, Barnyardgrass ([13]; 31 g ai/ha): 90 | Plant response rating, Barnyardgrass ([13]; 125 g ai/ha): 100 | Plant response rating, Ragweed ([14]; 31 g ai/ha): 0 | Plant response rating, Ragweed ([14]; 125 g ai/ha): 0 | Plant response rating, Galium [15, 19]: 100 | Plant response rating, Galium [15, 20]: 60 | Plant response rating, Wheat [16, 19]: 30 | Plant response rating, Wheat [16, 20]: 0 | Plant response rating, Barnyardgrass [17]: 40 | Plant response rating, Pigweed [18, 19]: 100 | Plant response rating, Pigweed [18, 20]: 100

Reference: US10485235B2, “Aryloxypyrimidinyl ethers as herbicides” (FMC Corporation, priority 2015, dated 2019)
